One assay concerns the target O-GlcNAcase (Rattus norvegicus, UniProt Q8VIJ5). Briefly: Cell-based ELISA for cellular activity of O-GlcNAcase inhibitors (O-GlcNAcylated protein level, RL-2 antibody). The conditions noted are these: increase in O-GlcNAcylated protein, cells treated 24 hours, RL-2 antibody ELISA. The text has this:
Assay for Determination of Cellular Activity for Compounds that Inhibit O-GlcNAcase Activity
Inhibition of O-GlcNAcase, which removes O-GlcNAc from cellular proteins, results in an increase in the level of O-GlcNAcylated protein in cells. An increase in O-GlcNAcylated protein can be measured by an antibody, such as RL-2, that binds to O-GlcNAcylated protein. The amount of O-GlcNAcylated protein:RL2 antibody interaction can be measured by enzyme linked immunosorbant assay (ELISA) procedures.
(In general: In an ELISA, binding on a coated surface is turned into a signal by an enzyme label.)

For a further assay, the target named is human O-GlcNAcase (Homo sapiens (Human), UniProt O60502). Briefly: Fluorescence-based assay for determination of KI values for inhibition of O-GlcNAcase activity. In kind it is biochemical. The settings on record: purified human O-GlcNAcase, 4-Methylumbelliferyl N-acetyl-β-D-glucosaminide substrate, pH 7.0, Cheng-Prusoff; read-out: Fluorescence-based hOGA Ki. How it is done: Assay for Determination of KI Values for Inhibition of O-GlcNAcase Activity
Experimental Procedure for Kinetic Analyses
Enzymatic reactions are carried out in a reaction containing 50 mM NaH2PO4, 100 mM NaCl and 0.1% BSA (pH 7.0) using 2 mM 4-Methylumbelliferyl N-acetyl-β-D-glucosaminide dihydrate (Sigma M2133) dissolved in ddH2O, as a substrate. The amount of purified human O-GlcNAcase enzyme used in the reaction is 0.7 nM. Test compound of varying concentrations is added to the enzyme prior to initiation of the reaction. The reaction is performed at room temperature in a 96-well plate and is initiated with the addition of substrate. […] The slope of product production is determined for each concentration of compound tested and plotted, using standard curve fitting algorithms for sigmoidal dose response curves. The values for a four parameter logistic curve fit of the data are determined.

Each structure is given as a SMILES string.

Chain of O-GlcNAcase (Q8VIJ5 whole entry, looked up): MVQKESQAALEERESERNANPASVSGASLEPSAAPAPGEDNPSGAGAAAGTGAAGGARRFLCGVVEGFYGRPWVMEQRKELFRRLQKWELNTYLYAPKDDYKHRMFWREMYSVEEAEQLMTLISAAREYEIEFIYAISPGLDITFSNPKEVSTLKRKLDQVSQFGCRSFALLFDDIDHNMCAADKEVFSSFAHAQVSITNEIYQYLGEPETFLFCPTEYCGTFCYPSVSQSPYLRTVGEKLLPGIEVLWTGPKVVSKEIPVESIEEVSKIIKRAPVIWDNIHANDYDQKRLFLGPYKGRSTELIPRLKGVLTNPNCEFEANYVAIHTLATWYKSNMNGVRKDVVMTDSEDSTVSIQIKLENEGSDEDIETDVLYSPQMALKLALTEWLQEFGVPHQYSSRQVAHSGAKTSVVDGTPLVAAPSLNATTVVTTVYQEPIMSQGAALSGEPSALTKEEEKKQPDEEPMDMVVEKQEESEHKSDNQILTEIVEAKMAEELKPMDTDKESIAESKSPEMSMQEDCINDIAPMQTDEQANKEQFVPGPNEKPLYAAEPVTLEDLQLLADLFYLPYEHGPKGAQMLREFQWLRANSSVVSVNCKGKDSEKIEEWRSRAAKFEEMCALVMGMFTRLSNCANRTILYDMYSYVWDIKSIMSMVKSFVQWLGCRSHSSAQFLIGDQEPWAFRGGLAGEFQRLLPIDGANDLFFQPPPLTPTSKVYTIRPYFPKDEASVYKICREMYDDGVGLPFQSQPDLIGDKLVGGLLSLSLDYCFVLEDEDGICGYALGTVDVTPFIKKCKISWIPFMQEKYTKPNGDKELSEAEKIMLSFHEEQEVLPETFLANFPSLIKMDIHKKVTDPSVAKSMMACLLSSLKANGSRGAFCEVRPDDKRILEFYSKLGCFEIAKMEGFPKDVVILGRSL
Chain of human O-GlcNAcase (O60502 whole entry): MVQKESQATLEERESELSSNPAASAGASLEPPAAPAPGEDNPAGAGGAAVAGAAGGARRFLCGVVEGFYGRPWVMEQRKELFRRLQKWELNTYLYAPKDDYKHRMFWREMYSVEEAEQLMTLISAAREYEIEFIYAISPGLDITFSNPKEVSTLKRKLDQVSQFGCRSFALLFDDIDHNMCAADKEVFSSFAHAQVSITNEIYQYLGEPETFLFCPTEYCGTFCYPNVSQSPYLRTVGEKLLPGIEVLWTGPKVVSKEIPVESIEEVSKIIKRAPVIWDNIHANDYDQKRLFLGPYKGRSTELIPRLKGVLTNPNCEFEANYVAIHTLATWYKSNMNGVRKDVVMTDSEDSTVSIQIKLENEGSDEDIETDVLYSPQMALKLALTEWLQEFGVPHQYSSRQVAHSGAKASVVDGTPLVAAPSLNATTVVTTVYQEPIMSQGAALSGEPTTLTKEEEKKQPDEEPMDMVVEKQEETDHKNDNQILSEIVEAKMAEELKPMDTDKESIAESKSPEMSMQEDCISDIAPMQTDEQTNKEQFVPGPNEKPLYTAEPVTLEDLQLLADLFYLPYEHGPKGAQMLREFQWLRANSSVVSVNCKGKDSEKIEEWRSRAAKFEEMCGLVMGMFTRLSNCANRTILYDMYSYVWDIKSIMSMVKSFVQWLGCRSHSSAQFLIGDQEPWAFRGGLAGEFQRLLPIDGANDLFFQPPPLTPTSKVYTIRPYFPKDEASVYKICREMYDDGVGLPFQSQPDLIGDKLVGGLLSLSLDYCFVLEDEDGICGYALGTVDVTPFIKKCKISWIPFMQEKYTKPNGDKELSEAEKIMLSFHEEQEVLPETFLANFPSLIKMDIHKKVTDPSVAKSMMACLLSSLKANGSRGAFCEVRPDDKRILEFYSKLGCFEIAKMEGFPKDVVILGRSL

In general, EC50 refers to the concentration needed to bring the measured effect to its halfway point. Low values mean higher potency in that assay, high ones lower potency in that assay. For orientation: Ki means a measure of affinity in units of concentration, obtained from inhibition or displacement. The compound `CN(C)C1=N[C@@H]2[C@@H](OCc3ccccc3)[C@H](COCc3ccccc3)[C@@H](C(O)C3SCCCS3)O[C@@H]2S1` (some centres unmarked) [Example 96] gave an EC50 at O-GlcNAcase of 4.55 nM. The Ki on human O-GlcNAcase turned out to be 0.19 nM.

Source of the values: patent US8901087B2, “Selective glycosidase inhibitors and uses thereof” (priority 2010, dated 2014).
